Experimental findings from ChEMBL document CHEMBL3822409, “Synthesis and antitubercular activity of new 1,3,4-oxadiazoles bearing pyridyl and thiazolyl scaffolds” (Bioorg Med Chem Lett, 2016) are described below.

As a reminder, the IC50 is the concentration at which inhibition is half-maximal. Low readings indicate higher potency, high ones lower potency. Broadly, the MIC is the lowest concentration found to suppress growth. Low readings indicate greater potency, high ones weaker potency. A word on the CC50: it is the concentration at which the toxic effect on the cells reaches its halfway point. A higher CC50 goes with lower toxicity to the cells.

In brackets after ≈: the same amount, converted by molar mass.

Series [1] in a line: Selectivity index, ratio of CC50 for human PANC1 cells to MIC for dormant stage of Mycobacterium bovis BCG ATCC 35734. It counts as toxicity, cell-based, PANC-1. As to conditions: read-out: Selectivity Index.
Series [2] is described as follows: Selectivity index, ratio of CC50 for human HeLa cells to MIC for dormant stage of Mycobacterium bovis BCG ATCC 35734. It is filed as toxicity, cell-based. To be noted: read-out: Selectivity Index.
Series [3] in a line: Selectivity index, ratio of CC50 for human HeLa cells to MIC for active stage of Mycobacterium bovis BCG ATCC 35734. It is filed as toxicity, cell-based. As to conditions: read-out: Selectivity Index.
Series [4] relates to Mycobacterium tuberculosis. Put plainly: Antimycobacterial activity against active stage of Mycobacterium tuberculosis H37Ra ATCC 25177 measured on day 8 by XTT reduction menadione assay. It counts as functional, organism-based. As to conditions: H37Ra ATCC 25177, 192 h. For orientation: Tetrazolium dyes change colour on reduction, which living cells bring about.
Series [5] has as its system Mycobacterium tuberculosis. The series is described as follows: Antimycobacterial activity against dormant stage of Mycobacterium tuberculosis H37Ra ATCC 25177 measured on day 12 by XTT reduction menadione assay. It is filed as functional, organism-based. To be noted: H37Ra ATCC 25177, 288 h.
Series [6] is described as follows: Cytotoxicity against human THP1 cells by MTT assay. It counts as cell-based, THP-1.
Series [7] is described as follows: Cytotoxicity against human HCT116 cells by MTT assay. It is filed as cell-based, HCT-116.
The nature of series [8]: Cytotoxicity against human PANC1 cells by MTT assay. It counts as cell-based, PANC-1.
The nature of series [9]: Cytotoxicity against human HeLa cells by MTT assay. It is filed as cell-based.
Series [10] is described as follows: Selectivity index, ratio of CC50 for human THP1 cells to MIC for active stage of Mycobacterium bovis BCG ATCC 35734. It counts as toxicity, cell-based, THP-1. To be noted: read-out: Selectivity Index.
A short description of series [11]: Selectivity index, ratio of CC50 for human HCT116 cells to MIC for active stage of Mycobacterium bovis BCG ATCC 35734. It counts as toxicity, cell-based, HCT-116. To be noted: read-out: Selectivity Index.
Series [12] in a line: Selectivity index, ratio of CC50 for human PANC1 cells to MIC for active stage of Mycobacterium bovis BCG ATCC 35734. It counts as toxicity, cell-based, PANC-1. To be noted: read-out: Selectivity Index.
The nature of series [13]: Selectivity index, ratio of CC50 for human THP1 cells to MIC for dormant stage of Mycobacterium bovis BCG ATCC 35734. It counts as toxicity, cell-based, THP-1. To be noted: read-out: Selectivity Index.
A short description of series [14]: Selectivity index, ratio of CC50 for human HCT116 cells to MIC for dormant stage of Mycobacterium bovis BCG ATCC 35734. As to conditions: read-out: Selectivity Index. It counts as toxicity, cell-based, HCT-116.

For `Cc1nc(-c2cccnc2)sc1-c1nnc(-c2ccc([N+](=O)[O-])cc2)o1`, the selectivity ratio in series [1], in [2], in [3], in series [10], in [11] and in series [12] was 3 in each case. Moreover, the selectivity ratio in [13] and in series [14] was 3 in each case. Also, the half-maximal inhibitory concentration (IC50) in [4] and in [5] was more than 30 µg/mL in each case. Besides, the MIC in [4] and in [5] was more than 30 µg/mL throughout. Besides, the CC50 in [6], in series [7], in series [8] and in series [9] was more than 100 µg/mL in each case.
Turning to `Cc1nc(-c2cccnc2)sc1-c1nnc(Cc2ccccc2)o1`, the selectivity ratio in series [1] was 10; in [2] it was 10; in series [3], 9; in series [10], 9; in series [11], 9; in series [12] it was 9. Also, the selectivity ratio in [13] and in series [14] was 10 throughout. Besides, the IC50 in [4] and in series [5] was more than 30 µg/mL each time. The MIC in [4] and in series [5] was more than 30 µg/mL each time. In addition, the CC50 in [6], in [7], in series [8] and in series [9] was more than 100 µg/mL each time.
For the molecule `Cc1nc(-c2cccnc2)sc1-c1nnc(-c2ccccc2[N+](=O)[O-])o1`, the selectivity ratio in series [1] is 17; in series [2], 17; in series [3] it was 39; in [10], 39; in series [11] it was 39; in series [12], 39. For the same molecule, the selectivity ratio in series [13] and in series [14] was 17 in each case. Besides, the IC50 in series [4] and in series [5] was more than 30 µg/mL in each case. Moreover, the MIC in [4] and in series [5] was more than 30 µg/mL each time. The CC50 in series [6], in series [7], in series [8] and in [9] was more than 100 µg/mL each time.
In the case of `CO[C@H]1/C=C/O[C@@]2(C)Oc3c(C)c(O)c4c(O)c(c(/C=N/N5CCN(C)CC5)c(O)c4c3C2=O)NC(=O)/C(C)=C\C=C\[C@H](C)[C@H](O)[C@@H](C)[C@@H](O)[C@@H](C)[C@H](OC(C)=O)[C@@H]1C` [RIFAMPIN], the selectivity ratio turned out to be 714 in series [1]; 714 in series [2]; 1250 in [3]; 1250 in series [10]; 1250 in [11]; 1250 in [12]. For the same molecule, the selectivity ratio in [13] and in [14] was 714 each time. Further, the results for the MIC in series [4] and in series [5] were 0.02 µg/mL (≈ 0.0243 µM) and 0.03 µg/mL (≈ 0.0365 µM), respectively. This molecule also gave an IC50 in series [5] of 0.0024 µg/mL (≈ 0.00292 µM). Moreover, the CC50 in [6], in [7], in series [8] and in series [9] was more than 100 µg/mL each time.
